We go through 15 compounds from article PMC7198601, “Side chain effect in the modulation of αvβ3/α5β1 integrin activity via clickable isoxazoline-RGD-mimetics: development of molecular delivery systems” (Scientific Reports, 2020).

Broadly, the IC50 is the concentration that gives 50% inhibition. A word on the EC50: it is the concentration needed to bring the measured effect to its halfway point. A high value points to a less potent agent.

The target of assay [1] is T1, α5β1 integrin (Homo sapiens, UniProt P05556+P08648). The assay can be described thus: Cell adhesion assay: K562 cells to immobilized fibronectin (α5β1 integrin-mediated). The conditions noted are these: for α5β1 behaviour (agonist/antagonist): K562 cell adhesion to fibronectin.
Experimental: (§1) The ability of the synthesized racemic ligands to inhibit the adhesion of K562 cells (human erythroleukemic cells, expressing α5β1 integrin) or SK-MEL-24 cells (human malignant melanoma cells, expressing αvβ3 integrin) to immobilized fibronectin was evaluated[29]. […] In these experiments, the cells were seeded onto plates coated with fibronectin and allowed to adhere before quantitation of the number of adherent cells, in presence of increasing concentrations of the compounds.
(§2) SK-MEL-24 (American Tissue Culture Collection, ATCC, Rockville, MD) were routinely grown in minimum essential medium (MEM, Cambrex, Walkersville, MD) supplemented with 10% fetal bovine serum (FBS), nonessential amino acids, and sodium pyruvate. K-562 (ATCC, Rockville, MD) were maintained as a stationary suspension culture in RPMI-1640 and L-glutamine with 10% FBS (Invitrogen (Carlsbad, CA). Cells were kept at 37 °C in a 5% CO2 humidified atmosphere. Forty hours before experiments, K-562 were treated with 25 ng/mL PMA (Sigma-Aldrich SRL, Milan, Italy) to induce differentiation and to increase expression of cell surface antigens[50].
(§3) Plates (96 wells) (Corning Costar, Celbio, Milan,Italy) were coated by passive adsorption with fibronectin (10 µg/mL) or poly-L-lysine (0.002%) (Sigma-Aldrich SRL) overnight at 4 °C. Cells were counted with a haemocytometer and pre-incubated with different concentrations of each compound or with the vehicle (methanol) for 30 min at room temperature to reach a ligand-receptor equilibrium. Stock solutions (10^–2 M) of the assayed compounds were prepared in phosphate-buffered saline (PBS). […] This product is a chromogenic substrate for β-N-acetylglucosaminidase that is transformed in 4-nitrophenol whose absorbance can be measured at 405 nm. As previously described[51], there is a linear correlation between absorbance and enzymatic activity. Therefore, it is possible to identify the number of adherent cells among treated wells, interpolating the absorbance values of unknowns in a calibration curve. The reaction was blocked by addition of 100 µL of a stopping solution [50 µM glycine and 5 µM EDTA (pH 10.4)], and the plates were read in an EnSpire Multimode Plate Reader (PerkinElmer, Waltham, MA, USA). Experiments were carried out in quadruplicate and repeated at least three times. Data analysis and IC50/EC50 values were calculated using Graph-Pad Prism 5.0 (GraphPad Software, San Diego, CA).
Assay [2] has as its target T2, αvβ3 integrin (Homo sapiens, UniProt P05106+P06756). As to the kind of experiment: Cell adhesion assay: SK-MEL-24 cells to immobilized fibronectin (αvβ3 integrin-mediated). The conditions noted are these: for αvβ3 behaviour (agonist/antagonist): SK-MEL-24 cell adhesion to fibronectin.
Experimental: as §1, §2, §3
Assay [3] concerns α5β1 integrin-mediated phosphorylation of ERK1/2. The assay can be described thus: α5β1 integrin-mediated ERK1/2 phosphorylation in K562 cells (Western blot). The class given is cell-based, human. The following applies: K562 cells not incubated with fibronectin, compound 10^−7–10^−9 M. The procedure:
The mechanism by which components of extracellular matrix generate intracellular signalling through integrins requires indeed an increased phosphorylation of cytoplasmatic second messengers. Phosphorylation of ERK1/2 plays a central role in fibronectin-mediated survival signalling through integrins: in fact, cell adhesion activates ERK1/2 by binding of α5β1 integrins at the cell surface to extracellular matrix proteins such as fibronectin. The experiment was performed by serum-starving K562 cells in RPMI-1640 containing 1% FBS for 16 h; thereafter, they were preincubated with compound 17b, 24 (10^−7–10^−9 M) or the vehicle for 60 minutes and then plated for 60 minutes on fibronectin.
Figure 2 (a) Cropped blots related to the effect of compounds 17b and 24 on α5β1 integrin-mediated phosphorylation of ERK1/2 in K562 cells. Cells were serum-starved in RPMI-1640 containing 1% FBS for 16 h; then cells were preincubated with different concentrations of the antagonist 17b (10^−7–10^−9 M) or its vehicle for 1 h in suspension and then were allowed to adhere for 1 h on fibronectin (FN). […] Thereafter cells were lysed and lysates were analysed in Western blot using an antibody directed against phosphorylated ERK1/2 (pERK1/2) or total ERK1/2 (totERK1/2). […]
K562 cells were incubated in RPMI-1640 with 1% FBS for 16 h. […] Digital images were acquired and analyzed following previously reported methods.
(In western blotting, separated proteins are transferred to a membrane and probed.)

In assay [4] the target is T1, α5β1 integrin. The assay can be described thus: α5β1 integrin internalization by confocal microscopy in HEK293 + α5-EGFP cells. The following applies: compound 1 µM, no fibronectin. The assay is classed as cell-based. The source says:
Integrin trafficking is an important mechanism employed by cells to regulate integrin–extracellular matrix interactions, and thus cellular signalling, during processes such as cell migration and invasion. α5β1 integrin is internalized, trafficked to recycling endosomes and then recycled to the plasma membrane[43],[44]. Membrane trafficking pathways influence α5β1’s ability to promote invasion and metastasis[45],[46]. […]
HEK293 cells (not expressing α5 but endogenously expressing β1 integrin[47],[48] were plated in 6 well plates and at 50–60% confluence were transiently transfected with α5-EGFP plasmid using Lipofectamine2000 transfection reagent (LifeTechnologies). After 48 h from transfection, HEK293 + α5-EGFP cells were assessed to verify integrins expression by flow cytometry (data not shown). α5-EGFP integrin plasmid was a kind gift from Michael Davidson (Addgene plasmid #56423). HEK293 + α5-EGFP cells were treated at 4 °C with fibronectin (10 µg/ml) or the agonist 24 (1 µM) in MEM for 1 hour. Cells exposed to the antagonist 17b (1 µM), before the addition of fibronectin, were pre-incubated with the compound for 20 minutes at 4 °C. […]
Specimens were embedded in Mowiol and analyzed using a Nikon C1s confocal laser-scanning microscope, equipped with a Nikon PlanApo 60×, 1.4-NA oil immersion lens. […]

Assay [5] addresses T2, αvβ3 integrin. The arrangement: SK-MEL-24 cells (human malignant melanoma cells, expressing αvβ3 integrin); endogenous in cells; host or cells: SK-MEL-24 (ATCC). The following applies: cited from earlier work; for IC50: cell adhesion assay, Figure 1, ref ChemMedChem 2011, 6, 2264–2272; for αvβ3 behaviour (agonist/antagonist): reference compounds, entries 11-19, Dechantsreiter et al. (table footnotes b-h).

Assay [6] has as its target T1, α5β1 integrin. Further details: K562 cells (human erythroleukemic cells, expressing α5β1 integrin); endogenous in cells; host or cells: K-562 (ATCC), treated with PMA 40 h before the experiments. The conditions noted are these: cited from earlier work; for IC50: cell adhesion assay, Figure 1, ref ChemMedChem 2011, 6, 2264–2272; for α5β1 behaviour (agonist/antagonist): reference compounds, entries 11-17, 41 (table footnotes b-f).

Read-outs that look alike come from different tables or passages of the source. Bounds are passed on as bounds.

T2 sequence (P06756 31-889 limits assumed): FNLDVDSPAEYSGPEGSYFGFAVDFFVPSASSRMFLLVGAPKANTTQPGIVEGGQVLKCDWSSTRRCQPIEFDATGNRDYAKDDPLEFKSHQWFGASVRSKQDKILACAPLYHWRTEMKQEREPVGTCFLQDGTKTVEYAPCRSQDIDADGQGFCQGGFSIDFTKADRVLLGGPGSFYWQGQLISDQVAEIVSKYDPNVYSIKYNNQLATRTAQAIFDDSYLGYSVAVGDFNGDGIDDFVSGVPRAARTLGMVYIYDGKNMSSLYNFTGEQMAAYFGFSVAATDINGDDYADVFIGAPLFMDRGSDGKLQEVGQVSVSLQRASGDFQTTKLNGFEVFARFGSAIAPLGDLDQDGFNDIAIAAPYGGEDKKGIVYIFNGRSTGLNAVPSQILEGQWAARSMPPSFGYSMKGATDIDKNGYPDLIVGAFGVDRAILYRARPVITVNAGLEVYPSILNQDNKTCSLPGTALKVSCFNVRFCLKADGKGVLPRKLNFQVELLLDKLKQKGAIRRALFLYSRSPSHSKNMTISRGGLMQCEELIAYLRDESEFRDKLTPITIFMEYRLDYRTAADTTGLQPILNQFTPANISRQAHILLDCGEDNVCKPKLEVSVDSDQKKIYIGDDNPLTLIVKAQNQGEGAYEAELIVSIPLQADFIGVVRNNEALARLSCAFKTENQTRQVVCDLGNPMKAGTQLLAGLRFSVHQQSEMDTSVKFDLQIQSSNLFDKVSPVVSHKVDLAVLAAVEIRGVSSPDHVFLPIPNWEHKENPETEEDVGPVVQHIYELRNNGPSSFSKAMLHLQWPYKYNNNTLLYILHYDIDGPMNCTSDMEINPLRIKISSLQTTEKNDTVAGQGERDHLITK
T2 sequence (P06756 891-1048 partner limits assumed): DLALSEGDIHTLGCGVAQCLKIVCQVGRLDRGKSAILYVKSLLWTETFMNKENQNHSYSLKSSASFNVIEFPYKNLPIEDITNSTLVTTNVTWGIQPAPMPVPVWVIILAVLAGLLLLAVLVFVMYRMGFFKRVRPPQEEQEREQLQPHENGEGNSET
T2 sequence (P05106 27-788): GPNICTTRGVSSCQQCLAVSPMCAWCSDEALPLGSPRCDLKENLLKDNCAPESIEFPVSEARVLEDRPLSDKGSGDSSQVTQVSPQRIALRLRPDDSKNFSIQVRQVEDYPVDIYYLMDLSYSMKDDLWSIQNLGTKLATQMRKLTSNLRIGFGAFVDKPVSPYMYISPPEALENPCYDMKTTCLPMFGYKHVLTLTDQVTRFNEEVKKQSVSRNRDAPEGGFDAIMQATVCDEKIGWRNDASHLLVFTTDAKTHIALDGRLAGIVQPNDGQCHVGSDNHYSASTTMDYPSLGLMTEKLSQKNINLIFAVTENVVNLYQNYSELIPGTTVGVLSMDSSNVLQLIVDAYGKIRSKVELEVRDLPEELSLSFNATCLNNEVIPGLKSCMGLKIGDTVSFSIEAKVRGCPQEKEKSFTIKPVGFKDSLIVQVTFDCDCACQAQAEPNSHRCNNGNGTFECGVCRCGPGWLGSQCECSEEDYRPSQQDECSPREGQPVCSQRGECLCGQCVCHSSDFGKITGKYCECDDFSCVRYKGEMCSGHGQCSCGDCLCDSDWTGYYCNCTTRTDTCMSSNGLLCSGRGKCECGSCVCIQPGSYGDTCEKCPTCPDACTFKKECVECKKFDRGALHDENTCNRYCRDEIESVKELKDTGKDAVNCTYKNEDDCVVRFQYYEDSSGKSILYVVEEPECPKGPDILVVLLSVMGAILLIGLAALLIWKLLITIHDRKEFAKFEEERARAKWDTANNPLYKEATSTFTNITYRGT
T1 sequence (P08648 42-894 limits assumed): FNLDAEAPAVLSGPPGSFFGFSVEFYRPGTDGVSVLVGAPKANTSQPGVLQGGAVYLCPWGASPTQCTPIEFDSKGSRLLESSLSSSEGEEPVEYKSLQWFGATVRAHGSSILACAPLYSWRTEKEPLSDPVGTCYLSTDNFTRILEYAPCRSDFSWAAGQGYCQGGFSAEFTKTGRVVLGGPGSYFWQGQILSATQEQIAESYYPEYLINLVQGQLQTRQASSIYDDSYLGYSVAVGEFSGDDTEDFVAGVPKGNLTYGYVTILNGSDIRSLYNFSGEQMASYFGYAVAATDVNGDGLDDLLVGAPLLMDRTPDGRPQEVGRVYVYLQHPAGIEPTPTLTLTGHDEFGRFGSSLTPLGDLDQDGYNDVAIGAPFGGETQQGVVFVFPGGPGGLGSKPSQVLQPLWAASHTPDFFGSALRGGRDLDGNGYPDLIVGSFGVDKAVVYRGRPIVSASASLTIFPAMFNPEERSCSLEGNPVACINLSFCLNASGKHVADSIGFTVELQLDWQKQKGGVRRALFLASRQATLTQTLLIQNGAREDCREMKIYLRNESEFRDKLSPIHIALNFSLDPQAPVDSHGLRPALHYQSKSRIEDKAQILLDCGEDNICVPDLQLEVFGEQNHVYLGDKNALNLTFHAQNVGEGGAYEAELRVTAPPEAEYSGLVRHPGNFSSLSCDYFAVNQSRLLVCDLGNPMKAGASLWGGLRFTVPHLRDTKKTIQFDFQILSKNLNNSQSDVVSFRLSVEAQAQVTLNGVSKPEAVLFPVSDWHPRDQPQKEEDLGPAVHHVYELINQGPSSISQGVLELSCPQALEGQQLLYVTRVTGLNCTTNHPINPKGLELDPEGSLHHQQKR
T1 sequence (P08648 895-1049 partner limits assumed): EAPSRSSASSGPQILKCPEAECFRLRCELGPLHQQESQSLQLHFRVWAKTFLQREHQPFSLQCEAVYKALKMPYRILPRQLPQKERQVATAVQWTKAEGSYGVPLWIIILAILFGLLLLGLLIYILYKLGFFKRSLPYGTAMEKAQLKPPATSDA
T1 sequence (P05556 21-798): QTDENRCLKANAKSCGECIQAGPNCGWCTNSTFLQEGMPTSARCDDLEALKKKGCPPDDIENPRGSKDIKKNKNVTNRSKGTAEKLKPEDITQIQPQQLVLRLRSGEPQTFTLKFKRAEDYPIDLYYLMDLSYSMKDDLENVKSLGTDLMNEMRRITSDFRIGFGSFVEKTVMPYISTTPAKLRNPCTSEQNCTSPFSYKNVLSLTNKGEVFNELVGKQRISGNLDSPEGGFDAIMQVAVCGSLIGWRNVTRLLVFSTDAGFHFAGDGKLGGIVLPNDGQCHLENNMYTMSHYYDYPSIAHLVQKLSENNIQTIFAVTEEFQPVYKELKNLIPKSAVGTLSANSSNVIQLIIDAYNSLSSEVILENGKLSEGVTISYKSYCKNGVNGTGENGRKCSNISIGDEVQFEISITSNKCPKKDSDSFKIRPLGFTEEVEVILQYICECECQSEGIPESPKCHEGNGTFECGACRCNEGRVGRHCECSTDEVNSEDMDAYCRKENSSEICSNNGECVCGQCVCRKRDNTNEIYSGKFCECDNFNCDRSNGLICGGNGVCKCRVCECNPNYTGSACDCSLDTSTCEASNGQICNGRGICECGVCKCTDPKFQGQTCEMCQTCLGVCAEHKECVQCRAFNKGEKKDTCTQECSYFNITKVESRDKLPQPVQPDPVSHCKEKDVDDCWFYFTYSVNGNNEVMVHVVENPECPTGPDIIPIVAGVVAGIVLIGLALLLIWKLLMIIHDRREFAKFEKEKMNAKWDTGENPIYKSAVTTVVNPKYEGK

In turn, `C#CCCCC1C(C(=O)NCc2ccc(N)cc2)=C(C)ON1C(=O)CC(=O)O` (centres unmarked) [Compound 8] came in with an IC50 in assay [1] of more than 1000 µM. In assay [2], the concentration giving a half-maximal response (EC50) came to 0.83 ± 0.05 µM and the “αvβ3 behaviour (agonist/antagonist)” value is given as “agonist”.
In the case of `CC1=C(C(=O)NCc2ccc(N)cc2)C(CCCc2cn(CCNC(=O)OC(C)(C)C)nn2)N(C(=O)CC(=O)O)O1` (centres unmarked) [Compound 17a], in assay [1], the 50% inhibitory concentration (IC50) worked out at 0.28 ± 0.03 µM and the “α5β1 behaviour (agonist/antagonist)” value was “antagonist”. Besides, in assay [2], the IC50 was found to be 0.88 ± 0.07 µM and the “αvβ3 behaviour (agonist/antagonist)” value is “antagonist”.
`CC1=C(C(=O)NCc2ccc(N)cc2)C(CCCc2cn(CC(=O)OC(C)(C)C)nn2)N(C(=O)CC(=O)O)O1` (centres unmarked) [Compound 20a] gave an IC50 in assay [1] of more than 1000 µM. In assay [2], the midpoint of the response, the EC50, lay at 0.23 ± 0.08 µM and the “αvβ3 behaviour (agonist/antagonist)” value was “agonist”.
As for `CC1=C(C(=O)NCc2ccc(N)cc2)C(CCCc2cn(CCC(=O)OC(C)(C)C)nn2)N(C(=O)CC(=O)O)O1` (centres unmarked) [Compound 20b], the IC50 in assay [1] is more than 1000 µM. For the same compound, in assay [2], the midpoint of the response, the EC50, lay at 0.068 ± 0.011 µM and the “αvβ3 behaviour (agonist/antagonist)” value is “agonist”.
Regarding `CC1=C(C(=O)NCc2ccc(N)cc2)C(CCCc2cn(CCCNC(=O)CCC(=O)OC(C)(C)C)nn2)N(C(=O)CC(=O)O)O1` (centres unmarked) [Compound 24], in assay [3], the ERK1/2-phosphorylation result is listed as “significant concentration dependent increase”. Further, the “α5β1 integrin internalization by compound alone” value in assay [4] was “induced α5β1 internalization”. Besides, in assay [1], the EC50 was determined as 6.59 ± 0.16 µM and the “α5β1 behaviour (agonist/antagonist)” value is on record as “agonist”. The IC50 in assay [2] was more than 1000 µM.
`CCOC(=O)CCCCn1cc(CCCC2C(C(=O)NCc3ccc(N)cc3)=C(C)ON2C(=O)CC(=O)O)nn1` (centres unmarked) [Compound 26] yielded an IC50 in assay [1] of more than 1000 µM. Also, in assay [2], the 50% effective concentration (EC50) turned out to be 0.61 ± 0.08 µM and the “αvβ3 behaviour (agonist/antagonist)” value is on record as “agonist”.
Turning to `CC1=C(C(=O)NCc2ccc(N)cc2)C(CCCc2cn(CCOCCOCCNC(=O)OC(C)(C)C)nn2)N(C(=O)CC(=O)O)O1` (centres unmarked) [Compound 28], the IC50 is more than 1000 µM in assay [1] and 8.84 ± 0.14 µM in assay [2]. Also, in assay [2], the “αvβ3 behaviour (agonist/antagonist)” value is “antagonist”.
For the compound `CCOC(=O)COCCOCCn1cc(CCCC2C(C(=O)NCc3ccc(N)cc3)=C(C)ON2C(=O)CC(=O)O)nn1` (centres unmarked) [Compound 30], the IC50 in assay [1] and in assay [2] was more than 1000 µM throughout.
On to `CC1=C(C(=O)NCc2ccc(N)cc2)C(C)N(C(=O)CC(=O)O)O1` (centres unmarked) [Ref A], for which, in assay [5], the IC50 is 0.032 ± 0.003 µM and the “αvβ3 behaviour (agonist/antagonist)” value is recorded as “antagonist”. For the same compound, the “αvβ3 IC50/EC50 (IC50 for antagonists)” value in assay [5] (cell adhesion to fibronectin) is listed as 0.032 ± 0.003 µM. In addition, in assay [6], the 50% inhibitory concentration (IC50) is 0.012 ± 0.004 µM and the “α5β1 behaviour (agonist/antagonist)” value was “antagonist”. Further, the “α5β1 IC50/EC50 (IC50 for antagonists)” value in assay [6] (cell adhesion to fibronectin) was 0.012 ± 0.004 µM.
For the compound `CC1=C(C(=O)NCc2ccc(N)cc2)C(C(C)C)N(C(=O)CC(=O)O)O1` (centres unmarked) [Ref B], in assay [5], the 50% inhibitory concentration (IC50) is 0.0088 ± 0.0006 µM and the “αvβ3 behaviour (agonist/antagonist)” value is listed as “antagonist”. Also, in assay [5] (cell adhesion to fibronectin), the “αvβ3 IC50/EC50 (IC50 for antagonists)” value is on record as 0.0088 ± 0.0006 µM. Besides, in assay [6], the 50% inhibitory concentration (IC50) is 0.00105 ± 0.0003 µM and the “α5β1 behaviour (agonist/antagonist)” value is “antagonist”.
For `CCC(C)C1C(C(=O)NCc2ccc(N)cc2)=C(C)ON1C(=O)CC(=O)O` (centres unmarked) [Ref C], in assay [5], the IC50 is 0.36 ± 0.07 µM and the “αvβ3 behaviour (agonist/antagonist)” value is on record as “antagonist”. Further, the “αvβ3 IC50/EC50 (IC50 for antagonists)” value in assay [5] (cell adhesion to fibronectin) is 0.360 ± 0.070 µM. Further, in assay [6], the half-maximal inhibitory concentration (IC50) is 1.32 ± 0.08 µM and the “α5β1 behaviour (agonist/antagonist)” value was “antagonist”. The “α5β1 IC50/EC50 (IC50 for antagonists)” value in assay [6] (cell adhesion to fibronectin) was 1.320 ± 0.080 µM.
Regarding `CC1=C(C(=O)NCc2ccc(N)cc2)C(C2CCCCC2)N(C(=O)CC(=O)O)O1` (centres unmarked) [Ref D], in assay [5], the IC50 was 0.02 ± 0.006 µM and the “αvβ3 behaviour (agonist/antagonist)” value was “antagonist”. Besides, the “αvβ3 IC50/EC50 (IC50 for antagonists)” value in assay [5] (cell adhesion to fibronectin) is given as 0.020 ± 0.006 µM. In addition, in assay [6], the half-inhibitory concentration (IC50) is 1.03 ± 0.05 µM and the “α5β1 behaviour (agonist/antagonist)” value was “antagonist”. In assay [6] (cell adhesion to fibronectin), the “α5β1 IC50/EC50 (IC50 for antagonists)” value is given as 1.030 ± 0.050 µM.
On to `Cc1ccccc1NC(=O)N1C(=O)CC1CC(=O)NCC(=O)O` (centres unmarked) [Ref E, 2-(2-(4-Oxo-(o-tolylcarbamoyl)azetidin-2-yl)acetamido)acetic acid], for which, in assay [5] (cell adhesion to fibronectin), the “αvβ3 IC50/EC50” value was more than 1000 µM. Further, the “α5β1 IC50/EC50 (EC50 for agonists)” value in assay [6] (cell adhesion to fibronectin) is recorded as 0.0129 ± 0.0006 µM. For the same compound, the “α5β1 behaviour (agonist/antagonist)” value in assay [6] was “agonist”.
Turning to “Ac-Asp-Arg-Leu-Asp-Ser-OH (Ac-DRLDS-OH) [standard antagonist of cell adhesion mediated by αvβ3 integrin]”, the “αvβ3 IC50/EC50 (IC50 for antagonists)” value in assay [5] (reference compound) is listed as 0.025 ± 0.003 µM. The “αvβ3 behaviour (agonist/antagonist)” value in assay [5] was “antagonist”. Besides, the “α5β1 IC50/EC50” value in assay [6] (reference compound) is given as more than 1000 µM.
For the compound “H-Gly-Arg-Gly-Asp-Thr-Pro-OH (H-GRGDTP-OH) [standard antagonist of cell adhesion mediated by α5β1 integrin]”, the “αvβ3 IC50/EC50 (IC50 for antagonists)” value in assay [5] (reference compound) is on record as 0.926 ± 0.006 µM. Moreover, the “αvβ3 behaviour (agonist/antagonist)” value in assay [5] is listed as “antagonist”. In addition, the “α5β1 IC50/EC50 (IC50 for antagonists)” value in assay [6] (reference compound) is on record as 0.00062 ± 0.00009 µM. Also, the “α5β1 behaviour (agonist/antagonist)” value in assay [6] is “antagonist”.
